Target: T1, human glycine transporter-2 (GlyT2) (Homo sapiens, UniProt Q9Y345)
T1 construct: The entire coding region of the human GlyT2 cDNA was cloned into the mammalian expression vector pCINeo; expressed in transfected cells; host or cells: Cos-7 cells (African green monkey kidney), stably transfected, vector pCINeo, G418 selection
T1 sequence (Q9Y345 1-797): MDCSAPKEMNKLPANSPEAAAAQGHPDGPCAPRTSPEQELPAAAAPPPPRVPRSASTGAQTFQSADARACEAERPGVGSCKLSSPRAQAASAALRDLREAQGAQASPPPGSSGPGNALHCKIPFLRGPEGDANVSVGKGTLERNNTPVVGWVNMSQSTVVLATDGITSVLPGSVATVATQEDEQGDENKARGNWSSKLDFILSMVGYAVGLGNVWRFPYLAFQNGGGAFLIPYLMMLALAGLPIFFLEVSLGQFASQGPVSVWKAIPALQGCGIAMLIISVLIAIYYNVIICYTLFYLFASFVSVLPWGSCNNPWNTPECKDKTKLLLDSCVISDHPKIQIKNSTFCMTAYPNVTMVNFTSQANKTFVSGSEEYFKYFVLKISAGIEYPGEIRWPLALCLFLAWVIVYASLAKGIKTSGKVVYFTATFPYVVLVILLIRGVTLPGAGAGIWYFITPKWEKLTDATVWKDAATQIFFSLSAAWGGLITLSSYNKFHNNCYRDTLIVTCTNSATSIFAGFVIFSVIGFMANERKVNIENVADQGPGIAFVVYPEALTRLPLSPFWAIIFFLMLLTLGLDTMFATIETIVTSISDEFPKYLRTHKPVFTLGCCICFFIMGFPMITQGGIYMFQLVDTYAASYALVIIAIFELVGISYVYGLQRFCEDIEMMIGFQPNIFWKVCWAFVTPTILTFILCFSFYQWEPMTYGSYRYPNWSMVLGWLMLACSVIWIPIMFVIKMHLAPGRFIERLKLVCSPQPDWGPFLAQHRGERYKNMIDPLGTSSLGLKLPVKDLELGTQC
Assay: GlyT2 inhibitory activity: inhibition of [14C]-glycine uptake in COS-7 cells transfected with human GlyT2
Assay type: cell-based
Conditions: Cos-7 cells stably transfected with human GlyT2; 20 μM 14C-glycine, 2 h at 37° C.
Method: GlyT2 antagonist activity of representative compounds of the invention was determined in accordance with the assay described in the Examples and by measuring the ability of compounds to inhibit the uptake of [^14C]-glycine in COS-7 cells transfected with the human glycine transporter-2 (GlyT2). The GlyT2 antagonist activities of these representative compounds are set forth hereinafter in Table 1.
Cos-7 cells (African green monkey, kidney) from American Type Culture Collection were grown in DMEM supplemented with 10% fetal bovine serum. The entire coding region of the human GlyT2 cDNA was cloned into the mammalian expression vector pCINeo, and then stably transfected into Cos-7 cells. Transfection was performed essentially as described by T. W. Lovenberg et al. (Mol. Pharmacol. 1999, 55:1101-1107). Cells are grown to 70-80% confluence, removed from the plate with trypsin, and pelleted in a clinical centrifuge. The pellet is resuspended in 400 μL complete medium and transferred to an electroporation cuvette with a 0.4 cm gap between the electrodes (Bio-Rad, 165-2088). One microgram of supercoiled GlyT2 cDNA is added to the cells, and the suspension is mixed. The voltage for the electroporation is set at 0.25 kV, and the capacitance is set at 960 μF. After electroporation, the cuvette contents are diluted to 10 mL with complete medium, and 0.5 mL, 1.0 mL, 2.0 mL and remainder (−6.5 mL) portions are plated onto four 10-cm dishes. The cells are incubated 24 h before adding 600 μg/mL G418. Colonies that survive selection are isolated and tested for GlyT2 expression.
The day before the assay, the GlyT2 expressing cells were plated into 96-well scintillating microplates (Amersham, RPNQ 0160) at a density of approximately 20,000 cells per well. Cells were grown overnight at 37° C. in 5% CO2 and then washed once with 37° C. HEPES buffered saline (HBS: 150 mM NaCl, 20 mM HEPES, 1 mM CaCl2, 10 mM glucose, 5 mM KCl, 1 mM MgCl2; pH 7.4). Eighty microliters of 37° C. HBS was subsequently added to each well. Test solutions of GlyT2 inhibitors were prepared in HBS from DMSO stock solutions, and 5 μL of test solution was added to each test well. Total transport and non-specific background were determined by adding 5 μL HBS or 5 μL 2 M glycine, respectively, to the appropriate control wells. Plates were then left at room temperature for 5 min before the addition of 20 μL of 100 μM ^14C-glycine (NEN, NEC 048H) to each well for a final concentration of 20 μM. Plates were incubated for 2 h at 37° C. with 5% CO2. After 2 h the reaction mixtures were removed by aspiration, and the plates were washed once with ice-cold HBS. Plates were sealed with TopSeal (Packard, 6005185) and counted on a Packard TopCount® scintillation counter.

Row | SMILES | IC50 [nM]
1 | CC(C)Nc1ccccc1NCCNCc1cc(C(=O)N2CCCCC2)cs1 [Example 36, (5-{[2-(2-Isopropylamino-phenylamino)-ethylamino]-methyl}-thiophen-3-yl)-piperidinyl-methanone] | 3100
2 | COc1ccccc1NCCNCc1cccc(C(=O)N2CCCCC2)c1 [Example 5, (3-{[2-(2-Methoxy-phenylamino)-ethylamino]-methyl}-phenyl)-piperidin-1-yl-methanone] | 2500
3 | CC(C)Oc1ccccc1NCCN(C)Cc1cccc(C(=O)N2CCCCC2)c1 [Example 27, [3-({[2-(2-Isopropoxy-phenylamino)-ethyl]-methyl-amino}-methyl)-phenyl]-piperidinyl-methanone] | 11000
4 | COc1cccc(NCCNCc2cccc(C(=O)N3CCCCC3)c2)c1 [Example 9, (3-{[2-(3-Methoxy-phenylamino)-ethylamino]-methyl}-phenyl)-piperidin-1-yl-methanone] | 800
5 | O=C(c1cccc(CNCCNc2ccccc2Cl)c1)N1CCCCC1 [Example 19, (3-{[2-(2-Chloro-phenylamino)-ethylamino]-methyl}-phenyl)-piperidin-1-yl-methanone] | 1200
6 | CC(C)Oc1ccccc1CCCNCc1cccc(C(=O)N2CCCCC2)c1 [Example 33, (3-{[3-(2-Isopropoxy-phenyl)-propylamino]-methyl}-phenyl)-piperidin-1-yl-methanone] | 4000

Further compounds by falling IC50, results first:

Row | IC50 [nM] | SMILES
7 | 7500 | CC(C)Oc1cccc(OCCNCc2cccc(C(=O)N3CCCCC3)c2)c1 [Example 26, (3-{[2-(3-Isopropoxy-phenoxy)-ethylamino]-methyl}-phenyl)-piperidin-1-yl-methanone]
8 | 3000 | CC(C)Oc1ccccc1NCCNCc1cccc(C(=O)N2CCCC2)c1 [Example 38, (3-{[2-(2-Isopropoxy-phenylamino)-ethylamino]-methyl}-phenyl)-pyrrolidin-1-yl-methanone]
9 | 1000 | CC(C)Oc1cccc(NCCN(C)Cc2cccc(C(=O)N3CCCCC3)c2)c1 [Example 30, [3-({[2-(3-Isopropoxy-phenylamino)-ethyl]-methyl-amino}-methyl)-phenyl]-piperidin-1-yl-methanone]
10 | 400 | CC(C)Oc1ccccc1NCCNCc1cccc(C(=O)N2CCCCC2)c1 [Example 1, (3-{[2-(2-Isopropoxy-phenylamino)-ethylamino]-methyl}-phenyl)-piperidin-1-yl-methanone]

Source: patent publication US7915420B2, “Aryl piperidine amides” (Janssen Pharmaceutica NV, priority 2003, dated 2011)
